Results on 1 compound are retold here after patent US9364448B2, “Nitisinone for treatment of oculocutaneous/ocular albinism and for increasing pigmentation” (The United States of America, as represented by the …, priority 2010, dated 2016).

For one series, the system named is Tyr^c-h/c-h pups. The experiment in a line: Prenatal NTBC treatment of pregnant Tyr^c-h/c-h females, pup examination. How it is done:
Drug Dosing and Monitoring. Ten C57BL/6J Tyr^c-2J/c-2J and ten C57BL/6Tyr^c-h/c-h mice, 3-4 months of age were designated for treatment with NTBC (Swedish Orphan Drug, Stockholm, Sweden). An equal number of age-matched controls of each genotype designated to receive vehicle treatment. NTBC was dissolved in 2 M NaOH and brought to neutral pH before administration to mice. Coat color, iris transillumination and fundus appearance were photodocumented prior to treatment. Because pigment deposition in hair is stimulated with new hair growth, a section of each mouse's coat was shaved prior to the beginning of the experiment. Drug or vehicle was given every other day via oral gavages, at a dosage of about 4 mg/kg, in a volume of about 0.2-0.3 ml. […] Coat color, iris transillumination and fundus appearance were photodocumented at the end of 1 month of treatment or vehicle dosing. For prenatal treatment experiments, pregnancy was determined by a maternal weight gain of >2 g over 7-9 days, after observing a vaginal mucus plug. Treatment with 4 mg/kg NTBC was initiated daily at day 9 or 10 of pregnancy by oral gavage, and given until birth of the litter. At that point, every-other-day oral treatment of the mother was initiated until time of weaning.

The test system of series [1] is C57BL/6J-Tyr^c-2J/c-2J mice (OCA1a model). Put plainly: Coat and ocular pigmentation, clinical examination, Tyr^c-2J/c-2J mice. In kind it is in vivo, mouse. As to conditions: one month. How it is done: Animal Husbandry and Clinical Examination. C57BL/6J mice (Stock #000664), C57BL/6JTyr^c-2J/c-2J mice (Stock #000058, MGI ID#1855985), and C57BL/6Tyr^c-h/c-h (Stock #000104, MGI ID#1855979) were obtained from the Jackson Laboratory (Bar Harbor, Me.). Mice were housed according to the institutional Animal Review Board standards with a 14 hour light/10 hour dark cycle. These studies conformed to the principles for laboratory animal research outlined by the Animal Welfare Act (NIH/HHS) and the ARVO Statement for the Use of Animals in Ophthalmic and Vision Research and were approved by the Institutional Animal Care and Use Committee of the National Eye Institute. Clinical examination and imaging of the anterior segment of mice were performed on gently-restrained, awake mice using a Haag-Streit BQ slit lamp and Imaging Module IM900® software (Haag-Streit, Inc., Mason, Ohio). […]
At the beginning of the study, baseline plasma concentrations of tyrosine, coat color (gross and microscopic), anterior segment pigment, and posterior segment pigment were documented for each mouse prior to initiating experiments. […] It is known that a possible side effect of NTBC treatment is corneal irritation, which is monitored daily. […] At the end of four weeks time, plasma tyrosine concentrations were assessed in both treated and control animals. […]

“Also recorded” adds a separate entry of the source.

As to `O=C1CCCC(=O)C1C(=O)c1ccc(C(F)(F)F)cc1[N+](=O)[O-]` [NTBC, 2-(-2-nitro-4 trifluoromethylbenzoyl)-1,3 cyclohexanedione], the “Fundus appearance of pups, vehicle- vs drug-treated dams” value in the series with Tyr^c-h/c-h pups (Tyr^c-h/c-h, 4 mg/kg) is recorded as “no significant difference”. The “Congenital malformations or systemic illnesses in pups of treated mothers” value in the series on Tyr^c-h/c-h pups (Tyr^c-h/c-h, 4 mg/kg prenatal treatment) is reported as “no obvious congenital malformations or systemic illnesses”. In addition, the “Iris pigmentation of pups on clinical examination” value in the series with Tyr^c-h/c-h pups (pups of NTBC-treated Tyr^c-h/c-h mothers, 4 mg/kg, near time of weaning) was “significant pigmentation”. Also, the “Coat color of pups” value in the series on Tyr^c-h/c-h pups (pups of NTBC-treated Tyr^c-h/c-h mothers, 4 mg/kg, vs vehicle-treated mothers) was “considerably darker”. Further, the Phenotypic changes entry in series [1] (1 mg/kg every other day by oral gavage) is recorded as “no phenotypic changes”. Moreover, the “Coat color, fundus pigmentation, iris transillumination (coat and ocular pigmentation)” value in series [1] (4 mg/kg orally every other day, 4 mg/kg) is given as “no difference; also recorded: grossly unchanged”.
